Reference: patent US12390437B2, “Itaconic acid derivatives and uses thereof intreating an inflammatory disease or a disease associated with an undesirable immune response” (Sitryx Therapeutics Limited, priority 2019, dated 2025)
Read-outs that look alike come from different tables or passages of the source.

What was measured:
NRF2 = NRF2 +/-GSH activation assay (DiscoverX PathHunter NRF2 translocation kit, U2OS cells); format: cell-based; conditions: for Emax: read-out: NRF2 activation Emax; for EC50: read-out: NRF2 activation EC50
Procedure: Measuring Compound Activation Effects on the Anti-Inflammatory Transcription Factor NRF2 in DiscoverX PathHunter NRF2 Translocation Kit
Potency and efficacy of compounds of formula (IW-1) against the target of interest to activate NRF2 (nuclear factor erythroid 2-related factor 2) were determined using the PathHunter NRF2 translocation kit (DiscoverX). The NRF2 translocation assay was run using an engineered recombinant cell line, utilising enzyme fragment complementation to determine activation of the Keap1-NRF2 protein complex and subsequent translocation of NRF2 into the nucleus. Enzyme activity was quantified using a chemiluminescent substrate consumed following the formation of a functional enzyme upon PK-tagged NRF2 translocation into the nucleus.
The assay was run under either +/−GSH (glutathione) conditions to determine the attenuating activities of GSH against target compounds.
Additionally, a defined concentration of dimethyl fumarate was used as the ‘High’ control to normalise test compound activation responses to.
U2OS PathHunter eXpress cells were thawed from frozen prior to plating. Following plating, U2OS cells were incubated for 24 hrs (37° C./5% CO2) in commercial kit provided cell medium.
Following 24 hrs of U2OS incubation, cells were directly treated with an appropriate final concentration of compound, for −GSH conditions, or for +GSH conditions, an intermediate plate containing 6× working concentrations of compound stocks was prepared in a 6 mM working concentration of GSH solution (solubilised in sterile PBS). Following a 30 minute compound-GSH pre-incubation (37° C./5% CO2) for +GSH treatment, plated U2OS cells were incubated with an appropriate final concentration of compound and GSH.
Following compound (+/−GSH) treatment, the U2OS plates were incubated for a further 6 hours (37° C./5% CO2) before detection reagent from the PathHunter NRF2 commercial kit was prepared and added to test plates according to the manufacturer's instructions. Subsequently, the luminescence signal detection in a microplate reader was measured (PHERAstar®, BMG Labtech).
Percentage activation was calculated by normalising the sample data to the high and low controls used within each plate (+/−DMF). Percentage activation/response was then plotted against compound concentration and the 50% activation concentration (EC50) was determined from the plotted concentration-response curve.

[1] = test system: IL-1β cytokine output from THP-1s; test: THP-1 AlphaLISA IL-1β cytokine assay; format: cell-based, human; conditions: read-out: IL-1β (IC50)
Procedure: Measuring Inhibitory Effects on IL-1β and IL-6 Cytokine Output from THP-1s
The cytokine inhibition profiles of compounds of formula (IW-1) were determined in a differentiated THP-1 cell assay. All assays were performed in RPMI-1640 growth medium (Gibco), supplemented with 10% fetal bovine serum (FBS; Gibco), 1% penicillin-streptomycin and 1% sodium pyruvate unless specified otherwise. The IL-1β and IL-6 cytokine inhibition assays were each run in a background of differentiated THP-1 cells as described below. All reagents described were from Sigma-Aldrich unless specified otherwise. Compounds were prepared as 10 mM DMSO stocks.
THP-1 cells were expanded as a suspension up to 80% confluence in appropriate growth medium. Cells were harvested, suspended, and treated with an appropriate concentration of phorbol 12-myristate 13-acetate (PMA) over a 72 hr period (37° C./5% CO2).
Following 72 hrs of THP-1 cell incubation, cellular medium was removed and replaced with fresh growth media containing 1% of FBS. Working concentrations of compounds were prepared separately in 10% FBS treated growth medium and pre-incubated with the cells for 30 minutes (37° C./5% CO2). Following the 30 minute compound pre-incubation, THP-1s were treated with an appropriate concentration of LPS and the THP-1s were subsequently incubated for a 24 hr period (37° C./5% CO2). An appropriate final concentration of Nigericin was then dispensed into the THP-1 plates and incubated for 1 hour (37° C./5% CO2) before THP-1 supernatants were harvested and collected in separate polypropylene 96-well holding plates.
Reagents from each of the IL-1β and IL-6 commercial kits (Perkin Elmer) were prepared and run according to the manufacturer's instructions. Subsequently, fluorescence signal detection in a microplate reader was measured (EnVision® Multilabel Reader, Perkin Elmer).
Percentage inhibition was calculated per cytokine by normalising the sample data to the high and low controls used within each plate (+/−LPS respectively). Percentage inhibition was then plotted against compound concentration and the 50% inhibitory concentration (IC50) was determined from the resultant concentration-response curve.

[2] = Mouse pharmacokinetic study, oral administration; format: in vivo; conditions: male, C57BL/6, mouse, plasma, po, 100 mg/kg, plasma, male C57BL/6 mice, oral gavage 100 mg/kg
Procedure: (§1) Pharmacokinetic studies were carried out in 6-8-week-old male C57BL/6 mice having free access to food and water. Intravenous dosing was conducted at 10 mg/kg (5 mL/kg; vehicle: 10% DMSO-90% (25% HP-13-CD in water)) via tail vein injection, with sampling at 3 min, 8 min, 15 min, 30 min, 1, 2, 4, 6 and 8 hours, i.e., 9 time points in total (N=3/time point), using semi-serial bleeding for plasma. Oral compound administration, via gavage, was carried out at 100 mg/kg (10 mL/kg; vehicle: 5% DMSO-95% (0.5% HPMC+0.1% Tween 80 in water)), with sampling at 5 min, 15 min, 30 min, 1, 2, 4, 6, 8 and 24 hours, i.e., 9 time points in total (N=3/time point), using semi-serial bleeding for plasma.
(§2) For both intravenous and oral routes, the mice were restrained manually at the designated time points, with ca. 110 μL of blood being taken into K2EDTA tubes via the facial vein. Blood samples were put on ice and centrifuged to obtain plasma samples from which the concentration at each time point was measured by LC-MS/MS.

[3] = Mouse pharmacokinetic study, intravenous dosing; format: in vivo; conditions: male, C57BL/6, mouse, iv, plasma, 10 mg/kg i.v., read-out: Parent compound concentration following intravenous administration
Procedure: as §1, §2

[4] = Homo sapiens, U2OS, normalised to dimethyl fumarate 'High' control, GSH condition not stated in Table 5
[5] = Homo sapiens, U2OS PathHunter cells, 6 hours, GSH condition not stated in Table 5
[6] = Homo sapiens, THP-1, PMA-differentiated THP-1 cells, LPS 24 hr then Nigericin 1 hour

| EC50 (NRF2; [5]) | IC50 [1, 6] | SMILES | Emax (NRF2; [4]) | other results |
| --- | --- | --- | --- | --- |
| 17.7 µM | 4.2 µM | C=C(CC(=O)OCCCCCC)C(=O)OCCc1nnn[nH]1 [Example 78, 1-(2-(1H-tetrazol-5-yl)ethyl) 4-hexyl 2-methylenesuccinate] | 177% | – |
| 38 µM | 32.7 µM | C=C(CC(=O)OC1CCCCC1)C(=O)OCCc1nnn[nH]1 [Example 128, 1-(2-(1H-tetrazol-5-yl)ethyl) 4-cyclohexyl 2-methylenesuccinate] | 104% | – |
| 29.1 µM | 16 µM | C=C(CC(=O)OC1CCCCCCC1)C(=O)OCCc1nnn[nH]1 [Example 130, 1-(2-(1H-tetrazol-5-yl)ethyl) 4-cyclooctyl 2-methylenesuccinate] | 164% | – |
| 11.1 µM | 4.2 µM | C=C(CC(=O)O[C@H](C)CCCCCC)C(=O)OCCc1nnn[nH]1 [Example 135, (R)-1-(2-(1H-tetrazol-5-yl)ethyl) 4-octan-2-yl 2-methylenesuccinate] | 157% | – |
| – | 7.6 µM | C=C(CC(=O)OC(CCCC)CCCC)C(=O)OCC(=O)O [Example 175, 2-((2-methylene-4-(nonan-5-yloxy)-4-oxobutanoyl)oxy)acetic acid] | – | concentration at 0.083 h ([2]; 0.083 h, read-out: Parent compound concentrations following oral administration, Time 0.083 h): 39100 ng/mL; concentration at 0.25 h ([2]; 0.25 h, read-out: Parent compound concentrations following oral administration, Time 0.25 h): 19500 ng/mL; concentration at 0.5 h ([2]; 0.5 h, read-out: Parent compound concentrations following oral administration, Time 0.5 h): 18200 ng/mL; concentration at 1 h ([2]; 1 h, read-out: Parent compound concentrations following oral administration, Time 1 h): 5520 ng/mL; concentration at 2 h ([2]; 2 h, read-out: Parent compound concentrations following oral administration, Time 2 h): 1410 ng/mL; concentration at 4 h ([2]; 4 h, read-out: Parent compound concentrations following oral administration, Time 4 h): 2000 ng/mL; concentration at 6 h ([2]; 6 h, read-out: Parent compound concentrations following oral administration, Time 6 h): 784 ng/mL; concentration at 8 h ([2]; 8 h, read-out: Parent compound concentrations following oral administration, Time 8 h): 231 ng/mL; concentration at 24 h ([2]; 24 h, read-out: Parent compound concentrations following oral administration, Time 24 h): < 4 ng/mL; concentration at 0.05 h ([3]; time 0.05 h): 27500 ng/mL; concentration at 0.133 h ([3]; time 0.133 h): 11700 ng/mL; concentration at 0.25 h ([3]; time 0.25 h): 6110 ng/mL; concentration at 0.5 h ([3]; time 0.5 h): 1190 ng/mL; concentration at 1 h ([3]; time 1 h): 181 ng/mL; concentration at 2 h ([3]; time 2 h): 32 ng/mL; concentration at 4 h ([3]; time 4 h): < 4 ng/mL; concentration at 6 h ([3]; time 6 h): < 4 ng/mL; concentration at 8 h ([3]; time 8 h): < 4 ng/mL |

Continued, molecule first:

| SMILES | EC50 (NRF2; [5]) | IC50 [1, 6] | Emax (NRF2; [4]) | other results |
| --- | --- | --- | --- | --- |
| C=C(CC(=O)OC1CCCCC1)C(=O)OC1CCN(S(C)(=O)=O)CC1 [Example 75, 4-cyclohexyl 1-(1-(methylsulfonyl)piperidin-4-yl) 2-methylenesuccinate] | 17.5 µM | 11.2 µM | 143% | – |
| C=C(CC(=O)OCCCOc1ccccc1)C(=O)OCC(=O)O [Example 95, 2-((2-methylene-4-oxo-4-(3-phenoxypropoxy)butanoyl)oxy)acetic acid] | 36.5 µM | 80.6 µM | 122% | – |
| C=C(CC(=O)OC1CCCCCCC1)C(=O)OC(C(=O)O)C(F)(F)F (stereo not shown) [Example 122, 2-((4-(cyclooctyloxy)-2-methylene-4-oxobutanoyl)oxy)-3,3,3-trifluoropropanoic acid] | 17.5 µM | 13 µM | 178% | – |
| C=C(CC(=O)OC1CCCCCCC1)C(=O)OC1(CC(=O)OCC)COC1 [Example 137, 4-cyclooctyl 1-(3-(2-ethoxy-2-oxoethyl)oxetan-3-yl) 2-methylenesuccinate] | 4.2 µM | 5.7 µM | 96% | – |
| C=C(CC(=O)OC1CCCCCCC1)C(=O)OC(CC(=O)O)C(F)(F)F (stereo not shown) [Example 144, 3-((4-(cyclooctyloxy)-2-methylene-4-oxobutanoyl)oxy)-4,4,4-trifluorobutanoic acid] | 2.1 µM | 1.7 µM | 176% | – |
| C=C(CC(=O)OC1CCCCCC1)C(=O)OCC(=O)O [Example 145, 2-(4-(cycloheptyloxy)-2-methylene-4-oxobutanoyloxy)acetic acid] | – | – | – | EC50 (NRF2; Homo sapiens, U2OS, 6 h): > 100 µM; Emax (NRF2; Homo sapiens, U2OS): 7%; IC50 ([1]; Homo sapiens, PMA-differentiated THP-1 cells, LPS 24 hr then Nigericin 1 hour): 19.3 µM |
| C=C(CC(=O)O[C@H]1[C@@H]2CC[C@H]1CN(S(C)(=O)=O)C2)C(=O)O[C@H]1[C@@H]2CC[C@H]1CN(S(C)(=O)=O)C2 [Example 156, bis((endo)-3-(methylsulfonyl)-3-azabicyclo[3.2.1]octan-8-yl) 2-methylenesuccinate] | – | – | – | EC50 (NRF2; U2OS PathHunter cells, 6 hours, GSH condition not stated in Table 5): 47.9 µM; NRF2 activation Emax (NRF2; normalised to dimethyl fumarate 'High' control, GSH condition not stated in Table 5): 63%; IC50 [1]: 27.9 µM |
